Assay results: patent publication EP4389751A1, “HETEROCYCLIC COMPOUNDS AND USES THEREOF” (Kumquat Biosciences Inc., priority 2021, dated 2024)

Assays:
[1] = target: T1, KRAS protein (His-tagged GDP-loaded G12S 1-169) (Homo sapiens, UniProt P01116, G12S); test: Covalent modification of KRAS protein, intact-protein LC-MS; format: binding; details: for % G12S Modification at 24 hr.: 24hrs at room temperature, KRAS protein ~2 µM
T1 construct: His-tagged GDP-loaded G12S 1-169
How it was run: (§1)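 His-tagged GDP-loaded KRAS 1-169 (~2 µM) incubated with compound 24 h at room temperature, then quenched with formic acid. Intact-protein LC-ESI-MS on C4 column; deconvoluted peak intensities of unmodified and adducted protein give percent covalent modification.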

[2] = target: T2, KRAS protein (His-tagged GDP-loaded G12D 1-169) (Homo sapiens, UniProt P01116, G12D); test: as above; format: binding; details: 24hrs at room temperature, KRAS protein ~2 µM
T2 construct: His-tagged GDP-loaded G12D 1-169
How it was run: as §1

| SMILES | % G12S Modification at 24 hr. [1] | K-Ras12S engagement after 24-hour treatment ([1]; 24-hour treatment, compound pairs differ only at R^6 (warhead)) | % G12D Modification at 24 hr. [2] |
| --- | --- | --- | --- |
| N#Cc1c(N)sc2c(F)ccc(-c3c(Cl)cc4c(OC5CCCCN(C(=O)n6cncn6)C5)nc(OC[C@@]56CCCN5C[C@H](F)C6)nc4c3F)c12 (stereo partly drawn) [Compound A258, 4-(4-((1-(1H-1,2,4-triazole-1-carbonyl)azepan-3-yl)oxy)-6-chloro-8-fluoro-2-(((2R,7aS)-2-fluorotetrahydro-1H-pyrrolizin-7a(5H)-yl)methoxy)quinazolin-7-yl)-2-amino-7-fluorobenzo[b]thiophene-3-carbonitrile] | +++ (+++ indicates greater than 20% labelling) | – | – |
| Nc1nc2c(-c3c(Cl)cc4c(N5CCCN(C(=O)n6cncn6)CC5)nc(OC[C@@]56CCCN5C[C@H](F)C6)nc4c3F)ccc(F)c2s1 [Compound A191, (4-(7-(2-amino-7-fluorobenzo[d]thiazol-4-yl)-6-chloro-8-fluoro-2-(((2R,7aS)-2-fluorotetrahydro-1H-pyrrolizin-7a(5H)-yl)methoxy)quinazolin-4-yl)-1,4-diazepan-1-yl)(1H-1,2,4-triazol-1-yl)methanone] | +++ (+++ indicates greater than 20% labelling) | – | – |
| Cc1ncn(C(=O)N2CC3CCN(c4nc(OC[C@@]56CCCN5C[C@H](F)C6)nc5c(F)c(-c6ccc(F)c7sc(N)c(C#N)c67)c(Cl)cc45)C3C2)n1 (stereo partly drawn) [Compound A304, 2-amino-4-(6-chloro-8-fluoro-2-(((2R,7aS)-2-fluorotetrahydro-1H-pyrrolizin-7a(5H)-yl)methoxy)-4-(5-(3-methyl-1 H-1,2,4-triazole-1-carbonyl)hexahydropyrrolo[3,4-b]pyrrol-1(2H)-yl)quinazolin-7-yl)-7-fluorobenzo[b]thiophene-3-carbonitrile] | +++ (+++ indicates greater than 20% labelling) | – | – |
| N#CCc1ncn(C(=O)N2CC3(C2)CN(c2nc(OC[C@@]45CCCN4C[C@H](F)C5)nc4c(F)c(-c5ccc(F)c6sc(N)c(C#N)c56)c(Cl)cc24)CCO3)n1 [Compound A110, 2-amino-4-(6-chloro-4-(2-(3-(cyanomethyl)-1H-1,2,4-triazole-1-carbonyl)-5-oxa-2,8-diazaspiro[3.5]nonan-8-yl)-8-fluoro-2-(((2R,7aS)-2-fluorotetrahydro-1H-pyrrolizin-7a(5H)-yl)methoxy)quinazolin-7-yl)-7-fluorobenzo[b]thiophene-3-carbonitrile] | +++ (+++ indicates greater than 20% labelling) | +++ (+++: indicates equal to or greater than 20% labelling) | – |
| N#Cc1c(N)sc2c(F)ccc(-c3ncc4c(N5CCCC6(CN(C(=O)n7cncn7)C6)C5)nc(OC[C@@]56CCCN5C[C@H](F)C6)nc4c3F)c12 [Compound A134, 4-(4-(2-(1H-1,2,4-triazole-1-carbonyl)-2,6-diazaspiro[3.5]nonan-6-yl)-8-fluoro-2-(((2R,7aS)-2-fluorotetrahydro-1H-pyrrolizin-7a(5H)-yl)methoxy)pyrido[4,3-d]pyrimidin-7-yl)-2-amino-7-fluorobenzo[b]thiophene-3-carbonitrile] | +++ (+++ indicates greater than 20% labelling) | – | – |
| N#Cc1ccn(C(=O)N2C3CCC2CN(c2nc(OC[C@@]45CCCN4C[C@H](F)C5)nc4c(F)c(-c5ccc(F)c6sc(N)c(C#N)c56)c(Cl)cc24)C3)n1 [Compound A224, 1-(3-(7-(2-amino-3-cyano-7-fluorobenzo[b]thiophen-4-yl)-6-chloro-8-fluoro-2-(((2R,7aS)-2-fluorotetrahydro-1H-pyrrolizin-7a(5H)-yl)methoxy)quinazolin-4-yl)-3,8-diazabicyclo[3.2. 1]octane-8-carbonyl)-1H-pyrazole-3-carbonitrile] | ++ (++ indicates between about 1%- 20% labelling) | – | ++ (++ indicates between about 1%- 20% labelling) |
| Nc1nc2c(-c3c(Cl)cc4c(N5CCCC6(CN(C(=O)n7cncn7)C6)C5)nc(OC[C@@]56CCCN5C[C@H](F)C6)nc4c3F)ccc(F)c2s1 [Compound A136, (6-(7-(2-amino-7-fluorobenzo[d]thiazol-4-yl)-6-chloro-8-fluoro-2-(((2R,7aS)-2-fluorotetrahydro-1H-pyrrolizin-7a(5H)-yl)methoxy)quinazolin-4-yl)-2,6-diazaspiro[3.5]nonan-2-yl)(1H-1,2,4-triazol-1-yl)methanone] | +++ (+++ indicates greater than 20% labelling) | – | – |
| N#Cc1c(N)sc2c(F)ccc(-c3c(Cl)cc4c(N5CCC6C5CCCN6C(=O)n5cncn5)nc(OC[C@@]56CCCN5C[C@H](F)C6)nc4c3F)c12 (stereo partly drawn) [Compound A152, 4-(4-(4-(1H-1,2,4-triazole-1-carbonyl)octahydro-1H-pyrrolo[3,2-b]pyridin-1-yl)-6-chloro-8-fluoro-2-(((2R,7aS)-2-fluorotetrahydro-1H-pyrrolizin-7a(5H)-yl)methoxy)quinazolin-7-yl)-2-amino-7-fluorobenzo[b]thiophene-3-carbonitrile] | +++ (+++ indicates greater than 20% labelling) | – | – |
| CN(C)C1CN(c2nc(N3CCOC4(CN(C(=O)n5cncn5)C4)C3)c3cc(Cl)c(-c4ccc(F)c5sc(N)c(C#N)c45)c(F)c3n2)C1 [Compound A256, 4-(4-(2-(1H-1,2,4-triazole-1-carbonyl)-5-oxa-2,8-diazaspiro[3.5]nonan-8-yl)-6-chloro-2-(3-(dimethylamino)azetidin-1-yl)-8-fluoroquinazolin-7-yl)-2-amino-7-fluorobenzo[b]thiophene-3-carbonitrile] | +++ (+++ indicates greater than 20% labelling) | – | – |
| N#Cc1c(N)sc2c(F)ccc(-c3c(Cl)cc4c(N5CCOC6CN(C(=O)n7cncn7)CC65)nc(OC[C@@]56CCCN5C[C@H](F)C6)nc4c3F)c12 (stereo partly drawn) [Compound A218, 4-(4-(6-(1H-1,2,4-triazole-1-carbonyl)hexahydropyrrolo [3,4-b][1,4]oxazin-4(4aH)-yl)-6-chloro-8-fluoro-2-(((2R,7aS)-2-fluorotetrahydro-1H-pyrrolizin-7a(5H)-yl)methoxy)quinazolin-7-yl)-2-amino-7-fluorobenzo[b]thiophene-3-carbonitrile] | +++ (+++ indicates greater than 20% labelling) | – | – |
| C#Cc1c(F)ccc2cc(O)cc(-c3ncc4c(N5CCOCC6(CN(C(=O)n7cnc(C)n7)C6)C5)nc(OC[C@@]56CCCN5C[C@H](F)C6)nc4c3F)c12 [Compound A298, (9-(7-(8-ethynyl-7-fluoro-3-hydroxynaphthalen-1-yl)-8-fluoro-2-(((2R,7aS)-2-fluorotetrahydro-1H-pyrrolizin-7a(5H)-yl)methoxy)pyrido[4,3-d]pyrimidin-4-yl)-6-oxa-2,9-diazaspiro[3.6]decan-2-yl)(3-methyl-1H-1,2,4-triazol-1-yl)methanone] | +++ (+++ indicates greater than 20% labelling) | – | – |
